Laboratory results as given in publication PMC5823845 (Bioorganic & Medicinal Chemistry, 2018).

System: panel of 120 other receptors, channels and enzymes
Test: CEREP selectivity screen, binding and enzyme assays
Details: 10 μM
Procedure: The CEREP selectivity screen was performed on the following targets:
A1, A2A, A3, α1, α2, β1, β2, AT1, AT2, BZD central, BZD periph, BB, B2, CGRP, CB1, CCK1, CCK2, D1, D2S, D3, D4.4, D5, ETA, ETB, GABA, GAL1, GAL2, PDGF, CXCR2, CCR1, TNF- α, H1, H2, MC4, MT1, M1, M2, M3, M4, M5, NK1, NK2, NK3,Y1, Y2, NTS1(NT1), δ2, κ, µ, NOP(ORL1) , PAC1(PACAP), PPARγ, PCP, EP2, EP4, IP(PGI2,), P2X, P2Y,5-HT1A, 5-HT1B, 5-HT2A, 5-HT2B, 5-HT2C, 5-HT3, 5-HT5A, 5-HT6, 5-HT7, σ, sst, GR, ER, VPAC1(VIP1), V1a, Ca^2+ channel (L), KV channel, KV channel, SKCa channel, Na^+ channel, Cl^- channel, norepinephrine transporter. dopamine transporter, 5-HT transporter.
sPLA2, COX1, COX2, 5-lipoxygenase, 12-lipoxygenase, inducible NOS, PDE2A1, PDE3A, PDE4D2, PDE5, PDE6, ACE, ACE-2, BACE-2, ECE-1, elastase, caspase-3, caspase-8, cathepsin D, cathepsin L, neutral endopeptidase, MMP-1, MMP-3, MMP-9, tryptase, TACE, phosphatase 1B, phosphatase CDC25A, Scr kinase, acetylcholinesterase, MAO-A, MAO-B, CENP-E, Eg5, HDAC3, HDAC4, HMG-CoA reductase, HDAC11, surtuin-1, surtuin-2.

CCOc1c(Cl)cc(C(=O)Nc2ccc(C(=O)O)c(C)c2)cc1OC(C)C [Compound 56, 4-(3-Chloro-4-ethoxy-5-isopropoxybenzamido)-2-methylbenzoic acid]
interactions with panel of 120 receptors, channels and enzymes: no significant interactions
inhibition (or stimulation), all panel targets (two independent experiments): ≤ 25%
